Assay results published in patent US20260216238A1, “TETRATHIOMOLYBDIC ACID FOR USE IN TREATING COPPER METABOLISM-ASSOCIATED DISEASES OR DISORDERS (WILSON DISEASE)” (Alexion Pharmaceuticals, Inc., priority 2023, published 2026).
Like-named read-outs stand apart in the source and are kept apart here.

System: participants with WD
Conditions: for Daily Net Copper Balance, Change from Baseline, Mean: Table 10; for Decrease from Baseline in Average Daily Net Copper Balance, Mean (SD): Table 13
Method: Study 204 is registered with ClinicalTrials.gov, number NCT04573309, and is described in Example 1 of U.S. Provisional Patent Application No. 63/237,120, filed Aug. 25, 2021, and incorporated by reference herein. […] The participants remained on a Cu-controlled diet, and Cu and Mo balance were measured on all intake (i.e., investigational agent, food and fluids) and all output (urine and feces). The Cu and Mo concentration of each sample was determined by inductively coupled plasma mass spectrometry (ICP-MS). Copper and Mo content of all intake and output was calculated based on the volume or weight of intake and output and the concentration of representative samples.
Collection periods for feces and urine varied in duration from 3 to 15 days to support assessment of both Cu and Mo balance before and at steady state for both 15 mg and 30 mg. Equilibration periods on Cu/Mo-controlled diets were a minimum of 48 hours. Copper balance was calculated as the mean daily Cu balance over each of the 4 collection periods. The interpretation of Cu balance was based on the criteria previously established when undertaking Cu balance studies with zinc treatment.
These participants had all intake (food and drink) and output (urine and feces) collected from Day −4 through Day −1 (baseline), from Day 1 through Day 8, and Day 25 through Day 39.

[1] = Days 1-8 (Accumulation 15 mg/day)
[2] = Days 25-28 (Steady State 15 mg/day)
[3] = Days 31-35 (Accumulation 30 mg/day)
[4] = Days 36-39 (Steady State 30 mg/day)

## bis-choline tetrathiomolybdate [TTM]
[1]
  Daily Net Copper Balance, Change from Baseline, Median: -0.4291 mg
  Daily Net Copper Balance, Value, Median: 0.6678 mg
  Increase from Baseline in Average Daily Fecal Copper Excretion, Mean: 0.3278 mg
  Increase from Baseline in Average Daily Urine Copper Excretion, Mean: -0.0108 mg
  Daily Net Copper Balance, Change from Baseline, Mean: -0.4848 mg
  Decrease from Baseline in Average Daily Net Copper Balance, Mean (SD): −0.4848(0.119) mg
Days 1-8 (Accumulation 15 mg/day), N=3
  Daily Net Copper Balance, Value, Mean: 0.7654 mg
Days 1-39
  Decrease from Baseline in Average Daily Net Copper Balance, Mean (SD): −0.448 (0.1469) mg
[2]
  Daily Net Copper Balance, Change from Baseline, Median: -0.1459 mg
  Daily Net Copper Balance, Value, Mean: 0.7638 mg
  Daily Net Copper Balance, Value, Median: 1.1434 mg
  Increase from Baseline in Average Daily Fecal Copper Excretion, Mean: 0.4931 mg
  Increase from Baseline in Average Daily Urine Copper Excretion, Mean: 0.1042 mg
  Daily Net Copper Balance, Change from Baseline, Mean: -0.4865 mg
  Decrease from Baseline in Average Daily Net Copper Balance, Mean (SD): −0.6381 (0.7673) mg
[3]
  Daily Net Copper Balance, Change from Baseline, Median: -0.3707 mg
  Daily Net Copper Balance, Value, Mean: 0.8577 mg
  Daily Net Copper Balance, Value, Median: 0.8312 mg
  Increase from Baseline in Average Daily Fecal Copper Excretion, Mean: 0.3879 mg
  Increase from Baseline in Average Daily Urine Copper Excretion, Mean: 0.0744 mg
  Daily Net Copper Balance, Change from Baseline, Mean: -0.3925 mg
  Decrease from Baseline in Average Daily Net Copper Balance, Mean (SD): −0.3925 (0.05781) mg
[4]
  Daily Net Copper Balance, Change from Baseline, Median: -0.4225 mg
  Daily Net Copper Balance, Value, Mean: 0.8582 mg
  Daily Net Copper Balance, Value, Median: 0.7986 mg
  Increase from Baseline in Average Daily Fecal Copper Excretion, Mean: 0.0899 mg
  Increase from Baseline in Average Daily Urine Copper Excretion, Mean: 0.1042 mg
  Daily Net Copper Balance, Change from Baseline, Mean: -0.3921 mg
  Decrease from Baseline in Average Daily Net Copper Balance, Mean (SD): −0.2765 (0.3138) mg
